# Values joined by “and” are separate entries in the source; they are usually repeats but may differ in a detail not shown here. Equal entries are not always repeated.
# Tests used:
# [1] = UV-Vis absorption (absorption maximum, extinction coefficient); format: physicochemical
# Protocol: (§1) Depending on the basic structure and substitution, the absorption maxima lie in the entire range of visible light, with a focus at 500-530 nm. The compounds show a high Stokes shift in the range of 80 nm. The absorption is measured, for example, at 25° C. in aqueous or ethanolic solutions with an extinction of 1.0 using a Specord 205 from Analytik Jena, wherein the aqueous solutions are preferably phosphate-buffered salt solutions (PBS buffer; approx. 100 mM sodium chloride and 100 mM total phosphate) and have a pH of 7.5. For example, the emission is measured at 25° C. in dilute aqueous or ethanolic solutions with an extinction of 0.1 using a FP-6600 spectrofluorometer from Jasco, wherein the dilute aqueous solutions are preferably phosphate-buffered salt solutions (PBS buffer; about 100 mM sodium chloride and 100 mM total phosphate) and have a pH of 7.5.
# [2] = Fluorescence emission (emission maximum); format: physicochemical
# Protocol: as §1
SMILES,ε ([1]; UV-Vis in PBS),λmax ([1]; UV-Vis in PBS),ε ([1]; UV-Vis in ethanol),λmax ([1]; UV-Vis in ethanol),λem ([2]; in PBS),λem ([2]; in ethanol)
"CCN(CC)c1ccc2c(c1)OC1=Cc3[o+]c4cc(N(CC)CC)ccc4c(-c4ccccc4C(=O)O)c3C(C)(C)C1=C2.[Cl-] [Compound 46, 2-[3,9-bis(diethylamino)-13,13-dimethyl-chromeno[3,2-b]xanthene-5-ium-14-yl]benzoic Acid Chloride Salt]",42000 L/mol/cm,663 nm,"60,000 l/mol*cm",664 nm,711 nm,710 nm
"CCN(CCCCCC(=O)O)c1ccc2cc3c([o+]c2c1)C=C(N(Cc1ccccn1)Cc1ccccn1)CC3(C)C.[Cl-] [Compound 28, 6-[[6-[bis(2-pyridylmethyl)amino]-8,8-dimethyl-7H-xanthene-10-ium-3-yl]-ethyl-amino]hexanoic Acid Chloride Salt]",,,"28,000 l/mol*cm",531 nm,,593 nm
"CCN(CCCCCC(=O)O)c1ccc2cc3c([o+]c2c1)C=C(c1ccc(N(C)C)cc1)CC3(C)C.[Cl-] [Compound 30, 6-[[6-[4-(dimethylamino)phenyl]-8,8-dimethyl-7H-xanthene-10-ium-3-yl]-ethyl-amino]hexanoic Acid Chloride Salt]",,,"30,000 l/mol*cm",664 nm,,713 nm
"CN(C1=Cc2[o+]c3cc(OCCCCCC(=O)O)c(S(=O)(=O)[O-])cc3cc2C(C)(C)C1)c1ccc(S(=O)(=O)[O-])cc1.[Na+] [Compound 19, 3-(5-carboxypentoxy)-8,8-dimethyl-6-(N-methyl-4-sulfonato-anilino)-7H-xanthene-10-ium-2-sulfonate Sodium Salt]",16500 L/mol/cm,460 nm,"18,000 l/mol*cm",465 nm,509 nm,522 nm
"CCN(CC)c1ccc2c(c1)OC1=CC(=O)CC(C)(C)C1=C2 [Compound 34, 6-(diethylamino)-1,1-dimethyl-2H-xanthene-3-one]",23000 L/mol/cm,450 nm,"24,800 l/mol*cm",440 nm,558 nm,540 nm
"CCN(CCCCCC(=O)O)c1ccc2c(c1)OC1=Cc3[o+]c4cc(OC)ccc4cc3C(C)(C)C1=C2.[Cl-] [Compound 48, 6-[ethyl-(3-methoxy-13,13-dimethyl-chromeno[3,2-b]xanthene-5-ium-9-yl)amino]hexanoic Acid Chloride Salt]",,,"53,000 l/mol*cm",654 nm,,712 nm
"CN(C1=Cc2[o+]c3cc(OCCCCCC(=O)O)ccc3cc2C(C)(C)C1)c1ccccc1.[Cl-] [Compound 18, 6-[[8,8-dimethyl-6-(N-methylanilino)-7H-xanthene-10-ium-3-yl]oxy]hexanoic Acid Chloride Salt]",,,,452 nm and 469 nm,,520 nm
"CC1(C)CC(=O)C(S(=O)(=O)[O-])=C2Oc3cc(OCCCCCC(=O)O)ccc3C=C21.[Na+] [Compound 40, 6-(5-carboxypentoxy)-1,1-dimethyl-3-oxo-2H-xanthene-4-sulfonate Sodium Salt]","21,000 l/mol*cm",407 nm,"19,500 l/mol*cm",403 nm,483 nm,487 nm
"CC1=CC(C)(C)N(CCCCCC(=O)O)c2cc3c(cc21)C=C1C(=C(S(=O)(=O)[O-])C(=O)CC1(C)C)O3.[Na+] [Compound 42, 1-(5-carboxypentyl)-2,2,4,7,7-pentamethyl-9-oxo-8H-chromeno[3,2-g]quinoline-10-sulfonate Sodium Salt]","28,000 l/mol*cm",487 nm,"30,000 l/mol*cm",473 nm,578 nm,559 nm
"CCN(CCCCCC(=O)O)c1ccc2cc3c([o+]c2c1)C=C(Nc1ccc(N)cc1)CC3(C)C.[Cl-] [Compound 27, 6-[[6-(4-aminoanilino)-8,8-dimethyl-7H-xanthene-10-ium-3-yl]-ethyl-amino]hexanoic Acid Chloride Salt]",,,"35,000 l/mol*cm",530 nm,,612 nm
"CCN(CCCCCC(=O)O)c1ccc2cc3c([o+]c2c1)C=C(Nc1ccc2cc(S(=O)(=O)[O-])ccc2c1)CC3(C)C [Compound 15, 6-[[6-[5-carboxypentyl(ethyl)amino]-1,1-dimethyl-2H-xanthene-10-ium-3-yl]amino]naphthalene-2-sulfonate]",,,"32,000 l/mol*cm",546 nm,,619 nm
"CC1(C)CC(NCCCS(=O)(=O)[O-])=Cc2[o+]c3cc(N(CCCCCC(=O)ON4C(=O)CCC4=O)CCCS(=O)(=O)[O-])ccc3cc21.[Na+] [Compound 6, 3-[[6-[[6-(2,5-dioxopyrrolidine-1-yl)oxy-6-oxo-hexyl]-(3-sulfonatopropyl)amino]-1,1-dimethyl-2H-xanthene-10-ium-3-yl]amino]propane-1-sulfonate Sodium Salt]",,,"44,000 l/mol*cm",512 nm,,570 nm
"CCN(CCCCCC(=O)O)c1ccc2cc3c([o+]c2c1)C=C(/C=C1\C=CC=CN1)CC3(C)C.[Cl-] [Compound 29, 6-[[8,8-dimethyl-6-[(E)-1H-pyridine-2-ylidenemethyl]-7H-xanthene-10-ium-3-yl]-ethyl-amino]hexanoic Acid Chloride Salt]",,,"24,000 l/mol*cm",434 nm,,541 nm
"CCN(CCCCCC(=O)O)c1ccc2c(c1)OC1=CC(=O)CC(C)(C)C1=C2 [Compound 35, 6-[(8,8-dimethyl-6-oxo-7H-xanthene-3-yl)-ethyl-amino]hexanoic Acid]","24,200 l/mol*cm",457 nm,"25,300 l/mol*cm",441 nm,559 nm,540 nm
"CCOC1=Cc2[o+]c3cc(N(CC)CC)ccc3cc2C(C)(C)C1.F[B-](F)(F)F [Compound 2, 6-ethoxy-N,N-diethyl-8,8-dimethyl-7H-xanthene-10-ium-3-amine tetrafluoroborate]",,,,531 nm,,605 nm
"CCN(CC)c1ccc2c(c1)OC1=C/C(=C/C=C3/C(=O)N(CCCCCC(=O)O)C(=O)N(CCCS(=O)(=O)[O-])C3=O)CC(C)(C)C1=C2.[Na+] [Compound 33, 3-[(5Z)-3-(5-carboxypentyl)-5-[(2E)-2-[6-(diethylamino)-1,1-dimethyl-2H-xanthene-3-ylidene]ethylidene]-2,4,6-trioxo-hexahydropyrimidin-1-yl]propane-1-sulfonate Sodium Salt]",,,"67,000 l/mol*cm",683 nm,,719 nm
"CCN(CCCCCC(=O)O)c1ccc2cc3c([o+]c2c1)C=C(Nc1ccccc1)CC3(C)C.[Cl-] [Compound 13, 6-[(6-anilino-8,8-dimethyl-7H-xanthene-10-ium-3-yl)-ethyl-amino]hexanoic Acid Chloride Salt]","38,000 l/mol*cm",526 nm,"44,000 l/mol*cm",532 nm,609 nm,603 nm
"CCN(CC)c1ccc2cc3c([o+]c2c1)C=C(/C=C/C=C1/N(CCCCCC(=O)O)c2ccc(S(=O)(=O)[O-])cc2C1(C)C)CC3(C)C [Compound 32, (2E)-1-(5-sarboxypentyl)-2-[(E)-3-[6-(diethylamino)-1,1-dimethyl-2H-xantheneium-3-yl]prop-2-enyliden]-3,3-dimethyl-indoline-5-sulfonate]",75000 L/mol/cm,755 nm,"143,600 l/mol*cm",770 nm,788 nm,795 nm
CCN(CC)c1ccc2cc3c([o+]c2c1)C=C(C)CC3(C)C.[Cl-] [Compound 31],,,"9,800 l/mol*cm",538 nm,,628 nm
"CC1=CC(C)(C)N(CCCCCC(=O)O)c2cc3c(cc21)C=C1C(=CC(=O)CC1(C)C)O3 [Compound 41, 6-(2,2,4,7,7-pentamethyl-9-oxo-8H-chromeno[3,2-g]quinolin-1-yl)hexanoic Acid]","23,000 l/mol*cm",460 nm,"24,000 l/mol*cm",463 nm,575 nm,557 nm
"CC1(C)CC(=O)C=C2Oc3cc(N(CCCCCC(=O)O)CCCS(=O)(=O)[O-])ccc3C=C21.[Na+] [Compound 37, 3-[5-carboxypentyl-(8,8-dimethyl-6-oxo-7H-xanthene-3-yl)amino]propane-1-sulfonate Sodium Salt]","26,000 l/mol*cm",454 nm,"27,000 l/mol*cm",439 nm,553 nm,538 nm
"CCN(CCCCCC(=O)O)c1ccc2cc3c([o+]c2c1)C=C(Nc1cccc(N(C)C)c1)CC3(C)C.[Cl-] [Compound 26, 6-[[6-[3-(dimethylamino)anilino]-8,8-dimethyl-7H-xanthene-10-ium-3-yl]-ethyl-amino]hexanoic Acid Chloride Salt]",,,"34,000 l/mol*cm",531 nm,,573 nm
"CC1=CC(C)(C)N(CCCS(=O)(=O)[O-])c2cc3[o+]c4c(cc3cc21)C(C)(C)CC(NCCCCCC(=O)O)=C4 [Compound 22, 3-[9-(5-carboxypentylamino)-2,2,4,7,7-pentamethyl-8H-chromeno[3,2-g]quinolin-11-ium-1-yl]propane-1-sulfonate]",37500 L/mol/cm,516 nm,"39,000 l/mol*cm",531 nm,590 nm,589 nm
